# Results taken from patent publication US20230293458A1, “MULTIBIOTIC AGENTS AND METHODS OF USING THE SAME” (Flagship Pioneering Innovations V, Inc., priority 2017, published 2023).
# Columns and labels:
# [1] = Stability of multibiotic agents in Simulated Gastric Fluid (SGF); type: in vitro ADME; settings: simulated gastric fluid pH 1.6 with pepsin, 37° C., 1 μM
# Summary of the method: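 Compounds were incubated at 1 μM final at 37 °C in simulated gastric fluid containing NaCl, pH 1.6, with FaSSIF powder and 0.1 mg/mL pepsin. Aliquots were taken at T0 and at regular intervals and quenched with acetonitrile. Degradation rates were determined by LC/MS.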
# [2] = Stability of multibiotic agents in Simulated Intestinal Fluid (SIF); type: in vitro ADME; settings: simulated intestinal fluid pH 6.7 with pancreatin, 37° C., 1 μM
# Summary of the method: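 Compounds at 1 μM final (from 1 mM DMSO stock) incubated at 37 °C with agitation in fresh SIF (FaSSIF plus pancreatin in pH 6.7 phosphate buffer). Aliquots taken at T0 and regular intervals, quenched with 1 volume acetonitrile. Degradation rate determined by LC/MS.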
structure (smiles),measurement,setting,value
"O=C(CCc1c[nH]c2ccccc12)O[C@H]1[C@@H](OC(=O)CCc2c[nH]c3ccccc23)COC(O)[C@@H]1OC(=O)CCc1c[nH]c2ccccc12 (stereo partly drawn) [Example 148, [(3S,4S,5R)-6-hydroxy-4,5-bis[3-(1H-indol-3-yl)propanoyloxy]tetrahydropyran-3-yl] 3-(1H-indol-3-yl)propanoate]",Assay 2 (SGF) (% Remaining @ 4 hours),[1],C (>75% of the tested compound remaining)
same,Assay 3 (SIF) (% @ Remaining 4 hours),[2],A (<25% of the tested compound remaining)
"CCC(=O)OC1OC[C@H](OC(=O)CC)[C@H](OC(=O)CC)[C@H]1OC(=O)CC (stereo partly drawn) [Example 149, [(3S,4S,5R)-4,5,6-tri(propanoyloxy)tetrahydropyran-3-yl] propanoate]",Assay 2 (SGF) (% Remaining @ 4 hours),[1],C (>75% of the tested compound remaining)
same,Assay 3 (SIF) (% @ Remaining 4 hours),[2],C (>75% of the tested compound remaining)
"CCCC(=O)OC1O[C@@H](C)[C@H](OC(=O)CCC)[C@@H](OC(=O)CCC)[C@H]1OC(=O)CCC (stereo partly drawn) [Example 152, [(2S,3S,4R,5R)-4,5,6-tri(butanoyloxy)-2-methyl-tetrahydropyran-3-yl] butanoate]",Assay 2 (SGF) (% Remaining @ 4 hours),[1],C (>75% of the tested compound remaining)
same,Assay 3 (SIF) (% @ Remaining 4 hours),[2],C (>75% of the tested compound remaining)
"C[C@@H]1OC(O)[C@H](OC(=O)Cc2c[nH]c3ccccc23)[C@H](OC(=O)Cc2c[nH]c3ccccc23)[C@H]1OC(=O)Cc1c[nH]c2ccccc12 (stereo partly drawn) [Example 155, [(2S,3S,4R,5R)-6-hydroxy-4,5-bis[[2-(1H-indol-3-yl)acetyl]oxy]-2-methyl-tetrahydropyran-3-yl] 2-(1H-indol-3-yl)acetate]",Assay 2 (SGF) (% Remaining @ 4 hours),[1],C (>75% of the tested compound remaining)
same,Assay 3 (SIF) (% @ Remaining 4 hours),[2],C (>75% of the tested compound remaining)
"CCCC(=O)O[C@@H]1[C@H](OC(=O)CCC)[C@H](C)OC(O)[C@H]1OC(=O)CCC (stereo partly drawn) [Example 156, [(2S,3R,4R,5S)-4,5-di(butanoyloxy)-6-hydroxy-2-methyl-tetrahydropyran-3-yl] butanoate]",Assay 2 (SGF) (% Remaining @ 4 hours),[1],C (>75% of the tested compound remaining)
same,Assay 3 (SIF) (% @ Remaining 4 hours),[2],A (<25% of the tested compound remaining)
"CCC(=O)OC1O[C@@H](C)[C@@H](OC(=O)CC)[C@@H](OC(=O)CC)[C@@H]1OC(=O)CC (stereo partly drawn) [Example 157, [(2S,3R,4R,5S)-2-methyl-4,5,6-tri(propanoyloxy)tetrahydropyran-3-yl] propanoate]",Assay 2 (SGF) (% Remaining @ 4 hours),[1],C (>75% of the tested compound remaining)
same,Assay 3 (SIF) (% @ Remaining 4 hours),[2],A (<25% of the tested compound remaining)
"CCCC(=O)OC[C@H]1OC(OC(=O)CCC)[C@H](OC(=O)CCC)[C@@H](OC(=O)CCC)[C@@H]1OC(=O)CCC (stereo partly drawn) [Example 160, [(2R,3R,4S,5R)-3,4,5,6-tetra(butanoyloxy)tetrahydropyran-2-yl]methyl butanoate]",Assay 2 (SGF) (% Remaining @ 4 hours),[1],C (>75% of the tested compound remaining)
same,Assay 3 (SIF) (% @ Remaining 4 hours),[2],A (<25% of the tested compound remaining)
"CCCC(=O)OC[C@H]1OC(O)[C@H](OC(=O)CCC)[C@@H](OC(=O)CCC)[C@@H]1OC(=O)CCC (stereo partly drawn) [Example 161, [(2R,3R,4S,5R)-3,4,5-tri(butanoyloxy)-6-hydroxy-tetrahydropyran-2-yl]methyl butanoate]",Assay 2 (SGF) (% Remaining @ 4 hours),[1],C (>75% of the tested compound remaining)
same,Assay 3 (SIF) (% @ Remaining 4 hours),[2],A (<25% of the tested compound remaining)
"CC(=O)OCC1(OC(C)=O)OC[C@@H](OC(C)=O)[C@H](OC(C)=O)[C@@H]1OC(C)=O (stereo partly drawn) [Example 162, [(3S,4S,5R)-2,3,4,5-tetraacetoxytetrahydropyran-2-yl]methyl acetate]",Assay 2 (SGF) (% Remaining @ 4 hours),[1],C (>75% of the tested compound remaining)
same,Assay 3 (SIF) (% @ Remaining 4 hours),[2],B (25-75% of the tested compound remaining)
"CCCC(=O)OCC1(OC(=O)CCC)OC[C@@H](OC(=O)CCC)[C@H](OC(=O)CCC)[C@@H]1OC(=O)CCC (stereo partly drawn) [Example 163, [(3S,4S,5R)-2,3,4,5-tetra(butanoyloxy)tetrahydropyran-2-yl]methyl butanoate]",Assay 2 (SGF) (% Remaining @ 4 hours),[1],B (25-75% of the tested compound remaining)
same,Assay 3 (SIF) (% @ Remaining 4 hours),[2],A (<25% of the tested compound remaining)
"CCCC(=O)OC[C@@H](OC(=O)CCC)[C@@H](OC(=O)CCC)[C@H](OC(=O)CCC)[C@@H](OC(=O)CCC)C(=O)Oc1ccc(/C=C/c2cc(OC(=O)[C@H](OC(=O)CCC)[C@@H](OC(=O)CCC)[C@H](OC(=O)CCC)[C@@H](COC(=O)CCC)OC(=O)CCC)cc(OC(=O)[C@H](OC(=O)CCC)[C@@H](OC(=O)CCC)[C@H](OC(=O)CCC)[C@@H](COC(=O)CCC)OC(=O)CCC)c2)cc1 [Example 164, [4-[(E)-2-[3,5-bis[[(2R,3S,4R,5R)-2,3,4,5,6-penta(butanoyloxy)hexanoyl]oxy]phenyl]vinyl]phenyl] (2R,3S,4R,5R)-2,3,4,5,6-penta(butanoyloxy)hexanoate]",Assay 2 (SGF) (% Remaining @ 4 hours),[1],B (25-75% of the tested compound remaining)
same,Assay 3 (SIF) (% @ Remaining 4 hours),[2],B (25-75% of the tested compound remaining)
"CCC(=O)OC1OC[C@@H](OC(=O)CC)[C@H](OC(=O)CC)[C@H]1OC(=O)CC (stereo partly drawn) [Example 165, [(3R,4S,5R)-4,5,6-tri(propanoyloxy)tetrahydropyran-3-yl] propanoate]",Assay 2 (SGF) (% Remaining @ 4 hours),[1],C (>75% of the tested compound remaining)
same,Assay 3 (SIF) (% @ Remaining 4 hours),[2],A (<25% of the tested compound remaining)
"CCC(=O)O[C@@H]1[C@@H](OC(=O)CC)[C@H](OC(=O)CC)CO[C@H]1O [Example 166, [(3R,4S,5R,6R)-6-hydroxy-4,5-di(propanoyloxy)tetrahydropyran-3-yl] propanoate]",Assay 2 (SGF) (% Remaining @ 4 hours),[1],C (>75% of the tested compound remaining)
same,Assay 3 (SIF) (% @ Remaining 4 hours),[2],B (25-75% of the tested compound remaining)
"CC(=O)Oc1ccc(-c2oc3cc(OC(C)=O)cc(OC(C)=O)c3c(=O)c2OC(C)=O)cc1 [Example 169, [4-(3,5,7-triacetoxy-4-oxo-chromen-2-yl)phenyl] acetate]",Assay 2 (SGF) (% Remaining @ 4 hours),[1],C (>75% of the tested compound remaining)
same,Assay 3 (SIF) (% @ Remaining 4 hours),[2],A (<25% of the tested compound remaining)
"CC(=O)Oc1ccc(C2CC(=O)c3c(OC(C)=O)cc(OC(C)=O)cc3O2)cc1 (stereo not shown) [Example 170, [4-(5,7-diacetoxy-4-oxo-chroman-2-yl)phenyl] acetate]",Assay 2 (SGF) (% Remaining @ 4 hours),[1],C (>75% of the tested compound remaining)
same,Assay 3 (SIF) (% @ Remaining 4 hours),[2],A (<25% of the tested compound remaining)
"CCCC(=O)Oc1ccc(C2CC(=O)c3c(OC(=O)CCC)cc(OC(=O)CCC)cc3O2)cc1 (stereo not shown) [Example 171, [4-[5,7-di(butanoyloxy)-4-oxo-chroman-2-yl]phenyl] butanoate]",Assay 2 (SGF) (% Remaining @ 4 hours),[1],B (25-75% of the tested compound remaining)
same,Assay 3 (SIF) (% @ Remaining 4 hours),[2],A (<25% of the tested compound remaining)
"C[C@@H](O)CCOC(=O)C[C@@H](C)O [Example 172, [(3R)-3-hydroxybutyl] (3R)-3-hydroxybutanoate]",Assay 2 (SGF) (% Remaining @ 4 hours),[1],C (>75% of the tested compound remaining)
same,Assay 3 (SIF) (% @ Remaining 4 hours),[2],C (>75% of the tested compound remaining)
"CCCC(=O)O[C@H](C)CCOC(=O)C[C@@H](C)OC(=O)CCC [Example 173, [(3R)-3-butanoyloxybutyl] (3R)-3-butanoyloxybutanoate]",Assay 2 (SGF) (% Remaining @ 4 hours),[1],C (>75% of the tested compound remaining)
same,Assay 3 (SIF) (% @ Remaining 4 hours),[2],A (<25% of the tested compound remaining)
"CC(=O)Oc1cc(OC(C)=O)c2c(=O)c(OC(C)=O)c(-c3cc(OC(C)=O)c(OC(C)=O)c(OC(C)=O)c3)oc2c1 [Example 177, [3,5-diacetoxy-4-oxo-2-(3,4,5-triacetoxyphenyl)chromen-7-yl] acetate]",Assay 2 (SGF) (% Remaining @ 4 hours),[1],C (>75% of the tested compound remaining)
same,Assay 3 (SIF) (% @ Remaining 4 hours),[2],A (<25% of the tested compound remaining)
"CC(=O)OCC[C@@H](C)OC(=O)Oc1ccc(/C=C/c2cc(OC(=O)O[C@H](C)CCOC(C)=O)cc(OC(=O)O[C@H](C)CCOC(C)=O)c2)cc1 [Example 178, [(3R)-3-[4-[(E)-2-[3,5-bis[[(1R)-3-acetoxy-1-methyl-propoxy]carbonyloxy]phenyl]vinyl]phenoxy]carbonyloxybutyl] acetate]",Assay 2 (SGF) (% Remaining @ 4 hours),[1],C (>75% of the tested compound remaining)
same,Assay 3 (SIF) (% @ Remaining 4 hours),[2],A (<25% of the tested compound remaining)
"CC(=O)OC[C@H]1O[C@@H](Oc2c(C)c(C)c3c(c2C)CC[C@@](C)(CCC[C@H](C)CCC[C@H](C)CCCC(C)C)O3)[C@H](OC(C)=O)[C@@H](OC(C)=O)[C@@H]1OC(C)=O [Example 180, [(2R,3R,4S,5R,6S)-3,4,5-triacetoxy-6-[(2R)-2,5,7,8-tetramethyl-2-[(4R,8R)-4,8,12-trimethyltridecyl]chroman-6-yl]oxy-tetrahydropyran-2-yl]methyl acetate]",Assay 2 (SGF) (% Remaining @ 4 hours),[1],C (>75% of the tested compound remaining)
same,Assay 3 (SIF) (% @ Remaining 4 hours),[2],C (>75% of the tested compound remaining)
"C[C@@H]1CCOC(C)(C(=O)Oc2ccc(/C=C/c3cc(OC(=O)C4(C)OCC[C@@H](C)O4)cc(OC(=O)C4(C)OCC[C@@H](C)O4)c3)cc2)O1 (stereo partly drawn) [Example 182, [4-[(E)-2-[3,5-bis[[(4R)-2,4-dimethyl-1,3-dioxane-2-carbonyl]oxy]phenyl]vinyl]phenyl] (4R)-2,4-dimethyl-1,3-dioxane-2-carboxylate]",Assay 2 (SGF) (% Remaining @ 4 hours),[1],C (>75% of the tested compound remaining)
same,Assay 3 (SIF) (% @ Remaining 4 hours),[2],C (>75% of the tested compound remaining)
"Cc1c(C)c2c(c(C)c1OC(=O)C1OCC[C@@H](C)O1)CC[C@@](C)(CCC[C@H](C)CCC[C@H](C)CCCC(C)C)O2 (stereo partly drawn) [Example 183, [(2R)-2,5,7,8-tetramethyl-2-[(4R,8R)-4,8,12-trimethyltridecyl]chroman-6-yl] (4R)-4-methyl-1,3-dioxane-2-carboxylate]",Assay 2 (SGF) (% Remaining @ 4 hours),[1],C (>75% of the tested compound remaining)
same,Assay 3 (SIF) (% @ Remaining 4 hours),[2],A (<25% of the tested compound remaining)
